From patent publication US9562053B2, “Benzo-fused heterocyclic derivatives useful as agonists of GPR120” (Janssen Pharmaceutica NV, priority 2013, dated 2017) come the findings set out here.

Each structure is given as a SMILES string. pEC50: −log10 of the molar value.

One experiment concerns the target T1, Human GPR120 short form (Homo sapiens, UniProt Q5NUL3).
T1 construct: expressed in transfected cells
T1 sequence (Q5NUL3 1-361): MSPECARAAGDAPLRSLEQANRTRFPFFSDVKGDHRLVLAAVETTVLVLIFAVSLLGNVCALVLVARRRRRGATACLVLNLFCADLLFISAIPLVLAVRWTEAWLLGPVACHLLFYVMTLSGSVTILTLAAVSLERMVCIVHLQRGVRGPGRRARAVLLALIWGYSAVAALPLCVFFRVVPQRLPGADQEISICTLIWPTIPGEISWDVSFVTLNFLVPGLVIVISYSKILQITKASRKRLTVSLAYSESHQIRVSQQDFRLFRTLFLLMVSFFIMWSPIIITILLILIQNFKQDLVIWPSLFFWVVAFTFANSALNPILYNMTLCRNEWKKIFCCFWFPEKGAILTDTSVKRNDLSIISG
Put plainly: Human GPR120 in Calcium Flux Assay, Procedure Calcium B (4200 cells/well). The class given is cell-based. From the text: This in vitro assay serves to assess test compound agonist activity against the short splice variant (SVS with Accession number NM_001195755.1 confirmed by sequencing data) of the GPR120 receptor. The Human Short splice variant #2 (NM_001195755.1) is missing an in-frame coding exon compared to variant 1 (the Human Long splice variant NM_181745.3), resulting in a shorter isoform (GPR120-S) lacking a 16 aa protein segment compared to isoform GPR120-L. The assay platform utilizes HEK-293 cells stably transfected to express the Human GPR120 short form. These cells are first loaded with the Ca^+2 sensitive dye, Fluo-4 NW. Upon stimulation, intracellular released Ca^+2 can bind to the dye and alter its fluorescence intensity. This increase in fluorescence signal, and thus the flux in intracellular [Ca^+2], is detected and quantitated by fluorescence imaging using a FLIPR reader. The effect of the agonist is measured as a function of concentration and used to calculate an EC50 based upon a response curve.
In this procedure 4200 cells/well were employed.
A Human GPR120 clone (Genbank accession number NM_001195755.1) was placed into the pcDNA3.1 mammalian expression vector carrying the neomycin resistance gene. A stable mammalian cell was generated by placing the above clone into a HEK293 background. Clonal cells responding to long chain fatty acids had expression levels of GPR120 confirmed by RT-qPCR. Human HEK-GPR120 cells were cultured in Dulbecco's Modified Eagle's Medium (DMEM)/F12 medium supplemented with 10% fetal bovine serum (FBS), 1% L-Glutamine and 1% penicillin/streptomycin and 0.5 mg/ml G-418. Cells were split 2 times a week to keep the cells in the log-phase growth.
In preparation for the assay, HEK cells stably transfected with Human GPR120 (2.5K cells per well in 25 uL growth medium) were seeded into 384-well plates and then incubated overnight (37° C., 5% CO2). The next day, the media was changed to 20 μl assay buffer and the cell starved for 1 h at 37° C. The dye loading solution (2× dye) was prepared using 10 ml assay buffer, 100 μl of 250 mM probenecid, 1 bottle of Component A, and 20 μl of dye in DMSO. Twenty μl of the 2× dye loading buffer was then added to each well. The plates were incubated at 37° C. for 30 min, then at room temperature for an additional 15 minutes, before performing the assay on FLIPR.
Test compounds were prepared in assay buffer (2 μl of test compound+198 μl assay buffer, final DMSO in assay plate is 0.2%) at the desired concentration, more particularly at 100 μM, 50 μM, 25 μM, 12.5 μM, 6.25 μM, 3.125 μM, 1.562 μM, 0.781 μM, 0.391 μM, 0.195 μM, 0.098 μM, 0.049 μM, 0.024 μM and 0.012 μM.
The assay was performed on a FLIPR plate reader using the following parameters. Baseline was read for 10 seconds at 1 sec intervals. The program was set to transfer 10 μL of ligand from compound plate to cell plate after baseline reading. Aspiration was executed at: 10 μl/sec speed, 4.6 μl height; Dispensing was executed at: 30 μl/sec speed, 45 μl height. After compound addition, each well was read for 300 sec, with measurements collected at 1 sec intervals.
The kinetic data from the FLIPR was based upon a 5 minute window for data collection. The fluorescence of each sample well was used for individual calculations of a normalized RFU value, which was defined as maximum response minus the minimum response. The normalized fluorescence reading (RFU) was calculated as follows: RFU=Fmax−Fmin
The data were fitted to a sigmoidal dose-response curve with a variable Hill slope (<2) using nonlinear regression with GraphPad Prism 5.0 to calculate the EC50 values. The Fitting Equation was: Y=Bottom+(Top−Bottom)/(1+10^((LogEC50−X)*HillSlope)), where X is the log of the concentration and Y is the response.
Background: Calcium assays in cells follow changes in intracellular calcium, usually with a dye or a luminescent sensor.

Experiment [1] deals with T2, short form of the GPR120 receptor (Homo sapiens, UniProt Q5NUL3).
T2 construct: host or cells: PathHunter CHO-K1 GPR120S β-Arrestin Cell Line
T2 sequence (Q5NUL3 1-361): T1 sequence (Q5NUL3 1-361)
Put plainly: Human GPR120 DiscoveRx PathHunter Beta-Arrestin Assay, Procedure β-arrestin B (5000 cells/well). The class given is cell-based. The source says:
(§1) The binding of an agonist (medium/long chain fatty acids or small molecule agonists) to the G-protein-coupled receptor GPR120 activates phospholipase C, leading to release of intracellular Ca^+2 through the generation of inositol 1,4,5-trisphosphate (InsP3 or IP3). GPR120 activation can also trigger intracellular signaling via recruitment of β-Arrestin. In the present method, agonist-induced activation of the human GPR120 receptor is monitored through the use of PathHunter CHO-K1 GPR120 β-Arrestin Cell Line engineered by DiscoveRx, as detailed below. The cell lines are designed to co-express both the ProLink/Enzyme Donor (PK)-tagged GPCR and the Enzyme Activator (EA)-tagged β-Arrestin fusion proteins. Upon GPR120 receptor stimulation/activation, the EA-tagged β-Arrestin portion is translocated to the tagged receptor, where the two enzyme fragments are brought within close proximity. Under these conditions, these fragments can interact and form an active Beta-gal enzyme complex through Enzyme Fragment Complementation (EFC). This active Beta-gal complex can enzymatically hydrolyse the substrate to produce a detectable light signal; therefore, activation as a function of agonist concentration can be expressed as an EC50 value to determine relative compound activities. This in vitro assay therefore serves to assess compound agonist activity of the GPR120.
In Procedure β-arrestin B the cells used were PathHunter CHO-K1 GPR120S β-Arrestin Cell Line, expressing the short form of the GPR120 receptor (Accession #NM_181745), with 5000 cells/well.
(§2) The selected CHO-K1 GPR120 β-Arrestin cells were cultured in Ham's F12 media supplemented with 10% fetal bovine serum (FBS), 1% Glutamine, 1×p/s, 800 μg/ml G418 and 300 μg/ml Hygromycin B (for selection). Cell stocks were maintained and grown in a sub-confluent state using standard cell culture procedures. The day before the experiment, the cells were harvested with non-enzymatic cell dissociation buffer and re-suspended in complete growth media at the desired concentration. A Corning 384-plate was then seeded with the proper number of cells in a volume of 25 μL, per well. The seeded plates were incubated overnight at 37° C.
(§3) On the day of the experiment, the Assay Buffer containing (a) HBSS with Ca^++ and Mg^++, (b) 20 mM HEPES, and (c) 0.1% BSA stabilizer (pH 7.4) was prepared. The growth medium was gently removed from the cell plates and 20 μL of Assay Buffer added to each well. The plate was then incubated at 37° C. for 60 mins. Test compounds were serially diluted in Assay Buffer to desired concentrations (more particularly, to one or more of the following μM concentrations: 25 μM, 12.5 μM, 6.25 μM, 3.125 μM, 1.562 μM, 0.781 μM, 0.391 μM, 0.195 μM, 0.098 μM, 0.049 μM, 0.024 μM, 0.012 μM). Five μl of compound dilution was then added to each well and the plate incubated at 37° C. for 90 mins. The detection reagents were prepared according to the manufacture's instruction. Twelve μL of the detection reagents were added to each well and the plate incubated at room temperature for 60 mins.
(§4) The plates were read on an EnVision instrument, using Protocol name: Luminescence, Plate type: 384 Costar, Measurement height: 3 mm, Measurement time: 1 s, Aperture: 384 Plate aperture. The % activity relative to the positive control was calculated using the following equation:
(§5) The % Activity values were plotted versus the concentration of test compound and fitted to a sigmoidal dose-response curve with a Hill slope=1 (fixed value) using nonlinear regression with GraphPad Prism 5.0 to calculate the EC50 values. The Fitting Equation was: Y=Bottom+(Top−Bottom)/(1+10^((LogEC50−X)*HillSlope)), where X is the log of the concentration and Y is the response.

The test system of a further experiment is C57bl/6J Mice. Put plainly: C57bl6 mouse OGTT. The class given is in vivo. How it is done:
Male, C57bl/6J Mice were ordered in at 8 weeks of age from Jackson Labs. Individual mice weighed anywhere in the range of 25-30 grams on study day. The mice were fasted, with removal of food occurring at 7 am on the morning of the study. Animals were moved into the room at 10:00 am, to give them time to acclimate. Glucose (insulin syringes) was drawn up either the night before or the morning of the study. Glucose was dosed (IP) at 1.5 g/kg at 7.5 ml/kg (20% glucose straight TEKNOVA, 250 ml sterile bottle w/catalogue number G0525). Test compounds were kept spinning and were only drawn into the syringes prior to study commencement. Animals were bled via tail snip to determine basal glucose levels prior to dosing of treatments. An Ascensia BREEZE Blood Glucose Monitoring System by Bayer (using unique 10-test disks) was used for determining glucose levels. The bleeds started at approximately 12:45 pm and dosing started, at 1-minute intervals, immediately after. All groups were dosed 30 minutes prior to glucose administration at a dose volume of 10 ml/kg (the dose volume was calculated separately for each individual animal). Thirty minutes after the first dose animals were bled again for a second baseline, or T=0, and immediately dosed with glucose via an i.p. injection. The exact dose volume for glucose was also calculated separately for each individual animal. Glucose measurements were taken at −30 min prior to compound dose, at t=0 (immediately prior to glucose dose), and at 15, 30, 45, 60, 90 min post glucose dose.
Glucose values were entered into an Excel sheet and graphed in GraphPad Prism. The following were calculated from Prism: Change from −30 to 0 BSLN Glucose, Raw Glucose AUC −30 to 90 min, Delta Glucose AUC −30 to 90 min, Raw Glucose AUC 0 to 90 min, Delta Glucose AUC 0 to 90 min.
The assay design is the same as that described above for the C57bl6 mouse IPGTT. The difference is that glucose was dosed PO at 3 g/kg, 7.5 ml/kg of 40% glucose.

Experiment [2] has as its target T3, long form of human GPR120 (Homo sapiens, UniProt Q5NUL3).
T3 construct: host or cells: PathHunter CHO-K1 GPR120 β-Arrestin Cell Line
T3 sequence (Q5NUL3 1-377 isoform Q5NUL3-1): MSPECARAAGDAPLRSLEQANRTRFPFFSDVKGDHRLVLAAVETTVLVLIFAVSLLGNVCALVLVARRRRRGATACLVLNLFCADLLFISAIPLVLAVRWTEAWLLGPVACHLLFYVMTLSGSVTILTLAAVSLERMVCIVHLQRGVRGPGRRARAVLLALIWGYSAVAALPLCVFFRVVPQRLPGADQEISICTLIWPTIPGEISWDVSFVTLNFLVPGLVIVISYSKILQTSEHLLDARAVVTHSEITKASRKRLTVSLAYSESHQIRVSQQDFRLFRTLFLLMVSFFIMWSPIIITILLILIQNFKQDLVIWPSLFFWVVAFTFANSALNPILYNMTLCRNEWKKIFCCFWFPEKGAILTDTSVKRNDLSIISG
Put plainly: Human GPR120 DiscoveRx PathHunter Beta-Arrestin Assay, Procedure β-arrestin A (3000 cells per well). Type of experiment: cell-based. Particulars: read-out: GPR120 B-arrestin A EC50.
Excerpt: as §1
In Procedure β-arrestin A, the cell used were PathHunter CHO-K1 GPR120 β-Arrestin Cell Line, expressing the long form of human GPR120 (Genbank accession number NM_181745), with 3000 cells per well.
as §2, §3, §4, §5

A word on the pEC50: it is the EC50 on a negative log10 scale, so that one unit is a factor of ten. As for `Cc1cc2cc(Cl)c(CCCS(C)(=O)=O)c(COc3ccc(CCC(=O)O)c(C)c3C)c2o1` [Compound 108, 3-[4-({5-Chloro-2-methyl-6-[3-(methylsulfonyl)propyl]-1-benzofuran-7-yl}methoxy)-2,3-dimethylphenyl]propanoic acid], the negative-log EC50 (pEC50) at Human GPR120 short form is 5.56.

On to `Cc1c(CCC(=O)O)ccc(OCc2cc(Cl)cc3sc(C(C)C)nc23)c1C` [Compound 106, 3-(4-{[6-chloro-2-(1-methylethyl)-1,3-benzothiazol-4-yl]methoxy}-2,3-dimethylphenyl)propanoic acid], for which the figures for the pEC50 (in experiment [1]; at Human GPR120 short form) were 6.05 and 6.74, respectively.

Take `CCCc1cc2cc(F)cc(COc3ccc(CCC(=O)O)c(C)c3C)c2o1` [Compound 13, 3-{4-[(5-Fluoro-2-propyl-1-benzofuran-7-yl)methoxy]-2,3-dimethylphenyl}propanoic acid]: the “Dose Responses C57 OGTT” value in the experiment with C57bl/6J Mice (3 mg/kg) and in the experiment with C57bl/6J Mice (10 mg/kg) was −16% throughout. Besides, the pEC50 in experiment [2] was 6.52.

Regarding `Cc1c(CCC(=O)O)ccc(OCc2cc(F)cc3sc(C(C)(C)C)nc23)c1C` [Compound 107, 3-{4-[(2-tert-butyl-6-fluoro-1,3-benzothiazol-4-yl)methoxy]-2,3-dimethylphenyl}propanoic acid], the negative logarithm of the EC50 (pEC50) in experiment [1] was 5.41; on Human GPR120 short form, 5.99.

For `CCc1nc2c(COc3ccc(CCC(=O)O)c(C)c3C)cc(Cl)cc2s1` [Compound 109, 3-{4-[(6-Chloro-2-ethyl-1,3-benzothiazol-4-yl)methoxy]-2,3-dimethylphenyl}propanoic acid], the pEC50 in experiment [1] is 6.72; at Human GPR120 short form, 7.42.

Turning to `Cc1c(CCC(=O)O)ccc(OCc2cc(F)cc3sc(C(C)C)nc23)c1C` [Compound 111, 3-(4-{[6-Fluoro-2-(1-methylethyl)-1,3-benzothiazol-4-yl]methoxy}-2,3-dimethylphenyl)propanoic acid], the results for the negative-log EC50 (pEC50) (in experiment [1]; on Human GPR120 short form) were 6.52 and 6.97, respectively.
